# Earlier results in patent US20230218514A1, “FLOATING SUSTAINED RELEASE TABLET FORMULATION OF DROXIDOPA AND METHOD THEREOF” (priority 2022, published 2023).
# Tests used:
# [1] = tested on: patients
# [2] = tested on: mice; conditions: mouse, in vivo
# [3] = tested on: monkeys; conditions: monkey, in vivo
# [4] = tested on: rats; conditions: rat, in vivo
# [5] = tested on: dogs; conditions: dog, in vivo
# [6] = not given; remark: listed apart in the source
# [7] = not given; remark: listed apart in the source
structure (smiles),measurement,setting,value
"N[C@H](C(=O)O)[C@H](O)c1ccc(O)c(O)c1 [Droxidopa, (2S,3R)-2-amino-3-(3,4-dihydroxyphenyl)-3-hydroxypropanoic acid]",Hepatotoxicity,"[1]; human, in vivo",not found
same,"Side effects, share of patients","[1]; nausea, headache, dizziness, increased B.P, hallucination and anorexia",0.78%
same,Acute oral LD50,[2],more than 5 g/kg
same,Acute oral LD50,[3],more than 5 g/kg
same,Acute oral LD50,[4],more than 5 g/kg
same,Acute oral LD50,[5],more than 5 g/kg
same,Cmax,in vivo,3160 ng/mL
same,Elimination half life,in vivo,2.5 h
same,Half-life,in vivo,2 to 3 h
same,Route of elimination,in vivo,mainly eliminated through urine
same,Tmax,in vivo,1 to 4 h
same,Volume of distribution,in vivo,200 L
same,Oral bioavailability,oral,90%
same,Protein binding,[6],75%
same,Solubility,[7],≥ 3000 µg/mL
same,Stability in alkaline medium,[7]; alkaline medium,highly unstable
same,Solubility in dilute HCl,[7]; dilute HCl,Soluble
same,Solubility in organic solvents,"[7]; methanol, glacial acetic acid, ethanol, acetone, chloroform",Practically insoluble
same,Solubility in water,[7]; water,Slightly soluble
